# Assay results as given in PubChem BioAssay AID1963831 (Molecular Pharmacology Branch, DTP, NCI, 2024).
# System: 889142-216-R-J1-PDC complex spheroid viability
# Assay: Anticancer human tumor 889142-216-R-J1-PDC patient-derived bladder carcinoma cell line growth inhibition [POLQ]
# Details: for IC50: curve of first compound; for viability, T/C: stronger effect = lower value
# Summary of the method: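 Growth inhibition in 3D: complex spheroids (tumor PDC, HUVEC, MSC) treated with POLQ inhibitor combinations; where Cmax unknown, highest tested concentration 10 microM, except SN-38 at 1 microM.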
# [1] = second compound 0.0316 µM, first compound 0.0316 µM
# [2] = second compound 0.0316 µM, first compound 0.1 µM
# [3] = second compound 0.0316 µM, first compound 0.316 µM
# [4] = second compound 0.0316 µM, first compound 1 µM
# [5] = second compound 0.0316 µM, first compound 3.16 µM
# [6] = second compound 0.0316 µM, first compound 10 µM
# [7] = second compound 0.1 µM, first compound 0.0316 µM
# [8] = second compound 0.1 µM, first compound 0.1 µM
# [9] = second compound 0.1 µM, first compound 0.316 µM
# [10] = second compound 0.1 µM, first compound 1 µM
# [11] = second compound 0.1 µM, first compound 3.16 µM
# [12] = second compound 0.1 µM, first compound 10 µM
# [13] = second compound 0.316 µM, first compound 0.0316 µM
# [14] = second compound 0.316 µM, first compound 0.1 µM
# [15] = second compound 0.316 µM, first compound 0.316 µM
# [16] = second compound 0.316 µM, first compound 1 µM
# [17] = second compound 0.316 µM, first compound 3.16 µM
# [18] = second compound 0.316 µM, first compound 10 µM
# [19] = second compound 1 µM, first compound 0.0316 µM
# [20] = second compound 1 µM, first compound 0.1 µM
# [21] = second compound 1 µM, first compound 0.316 µM
# [22] = second compound 1 µM, first compound 1 µM
# [23] = second compound 1 µM, first compound 3.16 µM
# [24] = second compound 1 µM, first compound 10 µM
# [25] = second compound 3.16 µM, first compound 0.0316 µM
# [26] = second compound 3.16 µM, first compound 0.1 µM
# [27] = second compound 3.16 µM, first compound 0.316 µM
# [28] = second compound 3.16 µM, first compound 1 µM
# [29] = second compound 3.16 µM, first compound 3.16 µM
# [30] = second compound 3.16 µM, first compound 10 µM
# [31] = second compound 10 µM, first compound 0.0316 µM
# [32] = second compound 10 µM, first compound 0.1 µM
# [33] = second compound 10 µM, first compound 0.316 µM
# [34] = second compound 10 µM, first compound 1 µM
# [35] = second compound 10 µM, first compound 3.16 µM
# [36] = second compound 10 µM, first compound 10 µM
# 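Note: spheroids exposed to compounds for seven days.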
# 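Throughout, for viability, T/C: 100% = DMSO vehicle control viability.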
compound,measurement,setting,value
CC1COCCN1c1cc(-c2ccnn2C)c2ccnc(-c3ccn[nH]3)c2n1 (centres undefined) + Nc1ccc(C#CCN(C(=O)Cc2ncc(C(F)(F)F)cc2C(F)(F)F)c2ccc(F)cc2)nn1,IC50,second compound 0.0316 µM,386 nM
same,IC50,second compound 0.1 µM,349 nM
same,IC50,second compound 0.316 µM,349 nM
same,IC50,second compound 1 µM,133 nM
same,IC50,second compound 3.16 µM,353 nM
same,IC50,second compound 10 µM,557 nM
same,"viability, T/C",[1],69.5%
same,"viability, T/C",[2],60.1%
same,"viability, T/C",[3],53.7%
same,"viability, T/C",[4],41%
same,"viability, T/C",[5],32.8%
same,"viability, T/C",[6],32.7%
same,"viability, T/C",[7],71.8%
same,"viability, T/C",[8],60%
same,"viability, T/C",[9],48.6%
same,"viability, T/C",[10],44.5%
same,"viability, T/C",[11],32.2%
same,"viability, T/C",[12],24.6%
same,"viability, T/C",[13],73.3%
same,"viability, T/C",[14],54.6%
same,"viability, T/C",[15],52.7%
same,"viability, T/C",[16],42.7%
same,"viability, T/C",[17],36.6%
same,"viability, T/C",[18],25.5%
same,"viability, T/C",[19],77.7%
same,"viability, T/C",[20],45.8%
same,"viability, T/C",[21],47.8%
same,"viability, T/C",[22],39.3%
same,"viability, T/C",[23],38.2%
same,"viability, T/C",[24],27.3%
same,"viability, T/C",[25],62.9%
same,"viability, T/C",[26],57.2%
same,"viability, T/C",[27],51%
same,"viability, T/C",[28],43.2%
same,"viability, T/C",[29],38.9%
same,"viability, T/C",[30],32.3%
same,"viability, T/C",[31],72.4%
same,"viability, T/C",[32],68.2%
same,"viability, T/C",[33],56.3%
same,"viability, T/C",[34],42.3%
same,"viability, T/C",[35],38.1%
same,"viability, T/C",[36],31.7%
COc1cc(C2c3cc4c(cc3C(OC3OC5COC(C)OC5C(O)C3O)C3COC(=O)C23)OCO4)cc(OC)c1O (centres undefined) + COC1C(OC(N)=O)C(O)C(Oc2ccc3c(O)c(NC(=O)c4ccc(O)c(CC=C(C)C)c4)c(=O)oc3c2C)OC1(C)C,IC50,second compound 0.0316 µM,> 10000 nM
same,IC50,second compound 0.1 µM,> 10000 nM
same,IC50,second compound 0.316 µM,> 10000 nM
same,IC50,second compound 1 µM,10000 nM
same,IC50,second compound 3.16 µM,> 10000 nM
same,IC50,second compound 10 µM,> 10000 nM
same,"viability, T/C",[1],93.7%
same,"viability, T/C",[2],81.6%
same,"viability, T/C",[3],52%
same,"viability, T/C",[4],57.3%
same,"viability, T/C",[5],74%
same,"viability, T/C",[6],52.9%
same,"viability, T/C",[7],87.1%
same,"viability, T/C",[8],87.2%
same,"viability, T/C",[9],63%
same,"viability, T/C",[10],56.3%
same,"viability, T/C",[11],70.4%
same,"viability, T/C",[12],50.4%
same,"viability, T/C",[13],110%
same,"viability, T/C",[14],88.8%
same,"viability, T/C",[15],66.1%
same,"viability, T/C",[16],56.2%
same,"viability, T/C",[17],60.3%
same,"viability, T/C",[18],52.9%
same,"viability, T/C",[19],91.5%
same,"viability, T/C",[20],99.9%
same,"viability, T/C",[21],53.4%
same,"viability, T/C",[22],61%
same,"viability, T/C",[23],60.4%
same,"viability, T/C",[24],56%
same,"viability, T/C",[25],94.9%
same,"viability, T/C",[26],96.9%
same,"viability, T/C",[27],75.3%
same,"viability, T/C",[28],51%
same,"viability, T/C",[29],58.1%
same,"viability, T/C",[30],52.9%
same,"viability, T/C",[31],108%
same,"viability, T/C",[32],90.2%
same,"viability, T/C",[33],56.7%
same,"viability, T/C",[34],48.9%
same,"viability, T/C",[35],64.5%
same,"viability, T/C",[36],55.3%
